Literature values in patent US6465018B1, “Dietary supplement for increasing energy, strength, and immune function” (priority 1997, dated 2002).

Tested on: individuals told to avoid physical exercise
Settings: daily dosage of 3 grams

In the case of `CN(CC(=O)O)C(=N)N` [creatine monohydrate], the intracellular creatine concentrations is listed as “raised intracellular creatine concentrations to effective levels”.
